Data reported in US7329520B2, “Fructosyl peptide oxidase and utilization thereof” (Daiichi Pure Chemicals Co., Ltd., priority 2002, dated 2008).
No end group written: not given here.

Assays:
[1] = system: enzyme originating from a plant belonging to the family Zingiberaceae; assay: Enzyme activity on substrates by glucosone production (substrate specificity, Km); format: biochemical, Zingiber officinale; conditions: Lineweaver-Burk's plots; glucosone production at 37° C., pH 8.0
Protocol: The method for determining activity of the enzyme of the present invention is exemplified by a method in which the enzyme is reacted with a substrate fructosyl peptide, to thereby produce non-fructosyl peptide, glucosone, and hydrogen peroxide, and the amount of any one of these compounds produced through the enzyme reaction is measured. Next will be described an example method of measuring the amount of glucosone produced. Hereinafter, unless otherwise specified, the substrate employed for determining activity of the enzyme of the present invention is fructosyl valyl histidine. One unit (U) of the titer of the enzyme is defined as the amount of enzyme which produces 1 μmol glucosone in one minute as measured when the substrate is fructosyl valyl histidine. […]
To the above reaction mixture, a mixture which has been prepared in advance by mixing 200 mM acetate buffer (pH 6.0) (750 μL), 4000-u/mL glucose oxidase (Toyobo Co., Ltd.) (450 μL), 0.15% 4-aminoantipyrine (300 μL), 0.3% TOOS (Dojindo Laboratories) (300 μL), 500-u/mL peroxidase (Toyobo Co., Ltd.: Type III) (300 μL), and 1% sodium azide (300 μL) is added, followed by heating for 10 minutes at 37° C. Thereafter, absorbance is measured at 550 nm. […] Thus, the amount (in micromoles) of glucosone produced in one minute is calculated, and the obtained value is used as the activity unit of the enzyme solution. […]

[2] = system: enzyme originating from Zingiber officinale; assay: Measurement of fructosyl peptide through glucosone, absorbance at 550 nm; format: biochemical; conditions: 0 to 40 μM substrate, enzyme 1.6 u/mL (30 μL), 16 hours at 37° C.
Protocol: 200 mM Phosphate buffer (pH 8.0) (150 μL), purified water (360 μL), and each of aqueous fructosyl valyl histidine solutions (60 μL) having different concentrations were mixed together so that the final fructosyl valyl histidine concentrations after reaction fell between 0 and 40 μM. The reaction was mixed with a solution of the enzyme originating from Zingiber officinale (1.6 u/mL) (30 μL), and the resultant mixture was allowed to react for 16 hours at 37° C. Subsequently, a mixture which had been prepared in advance by mixing 200 mM acetate buffer (pH 6.0) (750 μL), 4000-u/mL glucose oxidase (Toyobo Co., Ltd.) (450 μL), 0.15% 4-aminoantipyrine (300 μL), 0.3% TOOS (Dojindo Laboratories) (300 μL), 500-u/mL peroxidase (Toyobo Co., Ltd.: Type III) (300 μL), and 1% sodium azide (300 μL) was added to the reaction mixture, and the resultant mixture was treated for 10 minutes at 37° C., followed by measuring absorbance at 550 nm (FIG. 7).

[3] = system: Zingiber officinale-originating enzyme; assay: Hydrogen peroxide production, DA-64 color development; format: biochemical; conditions: lmM substrate, enzyme 0.3 u/mL, 30 minutes at 50° C., pH 8.0, DA-64/POD
Protocol: To a 50 mM phosphate buffer (pH 8.0) containing 0.5 mM DA-64 (product of Wako Pure Chemical Industries, Ltd.), 200-u/mL POD, 0.1% sodium azide, and lmM fructosyl valine or fructosyl peptide (SEQ ID NOs: 1 to 5) (all being final concentrations), a Zingiber officinale-originating enzyme solution was added in an amount of 0.3 u/mL (final concentration), and the mixture was treated for 30 minutes at 50° C. Absorbance at 700 nm was measured by employment of purified water as a control. Color development of DA-64 was observed (Table 1). Thus, hydrogen peroxide was confirmed to be produced.

[4] = system: Zingiberaceae-plant-origin crude enzyme solution; assay: Defructosylation of fructosyl peptide, analysed by capillary electrophoresis; format: biochemical, Zingiber officinale; conditions: reaction mixture 1, 16 hours at 37° C., pH 8.0, control peak area 32 mABU×sec
Protocol: (i) A 100 mM phosphate buffer (pH 8.0) (100 μL), a 500 μM aqueous solution (40 μL) of the N-terminal-valine fructosylated peptide having an amino acid sequence represented by SEQ ID NO: 2 (f-VHL: products of Bioquest), purified water (20 μL), and the Zingiberaceae-plant-origin crude enzyme solution (40 μL) prepared in Example 1 were mixed together, and the mixture was caused to react for 16 hours at 37° C. The reaction mixture was subjected to ultrafiltration (molecular weight: 10,000), and the filtrate was collected (reaction mixture 1). The reaction mixture 1 was analyzed through use of a capillary electrophoresis apparatus CAPI-3200 (product of Otsuka Electronics Co., Ltd) (electrophoresis buffer: 150 mM phosphate buffer (pH 2.0), voltage: 15 kV, detection wavelength: 210 nm) in terms of peak position and peak area.
As a control, purified water was added instead of the crude enzyme solution, and the resultant mixture was allowed to react under similar conditions, to thereby prepare a filtrate (control solution 1). The analysis results obtained from the control solution 1 were compared with those of the reaction mixture 1.
The fructosyl peptide employed in the enzyme reaction or control test had been mixed with corresponding non-fructosylated peptide. The presence or absence of the enzyme activity was determined through comparison of the two peaks.

| Molecule | Km [1] [µM] | absorbance at 550 nm against substrate concentration [2] | Absorbance at 700 nm [3] [mAbs] | peak attributed to f-VHL (capillary electrophoresis) [4] |
| --- | --- | --- | --- | --- |
| CC(C)[C@H](NC1(CO)O[C@H](CO)[C@@H](O)[C@@H]1O)C(=O)N[C@@H](Cc1c[nH]cn1)C(=O)O (some centres unmarked) [f-VH, fructosyl valyl histidine] | 1200 | increase in accordance with the increase in concentration | 735 | – |
| f-VHL: N-terminal-valine fructosylated peptide having an amino acid sequence represented by SEQ ID NO: 2; fructosyl tripeptide (fructosyl-Val-His-Leu) | – | – | 570 | does not exist |
| f-VHLT: N-terminal-valine fructosylated tetrapeptide substrate (SEQ ID NO: 3) (fructosyl-VHLT) | – | – | 558 | – |
| f-VHLTP: N-terminal-valine fructosylated pentapeptide substrate (SEQ ID NO: 4) (fructosyl-VHLTP) | – | – | 198 | – |
| f-VHLTPE: N-terminal-valine fructosylated hexapeptide substrate (SEQ ID NO: 5) (fructosyl-VHLTPE) | – | – | 223 | – |
